Drawing on ChEMBL document CHEMBL5236613, “Exploration of 1,2,3-triazole linked benzenesulfonamide derivatives as isoform selective inhibitors of human carbonic anhydrase” (Bioorg Med Chem, 2023), this text covers Ki and IC50 for 13 compounds.

For test [1], the target named is Carbonic anhydrase 9 (Homo sapiens, UniProt Q16790). Nature of the test: Inhibition of human transmembrane carbonic anhydrase 9 using 4-nitrophenyl acetate as substrate assessed as inhibition constant by spectrophotometric analysis.
The test system of test [2] is A549. Nature of the test: cells. The settings on record: Homo sapiens, A549, 24 h.
Description: Antiproliferative activity against human A549 cells assessed as inhibition of cell growth incubated for 24 hrs by MTT assay

With `CCCCCCN1C(=O)c2ccc(C(=O)OCc3cn(-c4ccc(S(N)(=O)=O)cc4)nn3)cc2C1=O`, the Ki in test [1] came out at 0.0752 µM. The same compound returned an IC50 in test [2] of 161 µM. Take `N#Cc1ccc(N2C(=O)c3ccc(C(=O)OCc4cn(-c5ccc(S(N)(=O)=O)cc5)nn4)cc3C2=O)cc1`: the Ki in test [1] turned out to be 0.0286 µM. The same compound registered an IC50 in test [2] of 266 µM. As for `NS(=O)(=O)c1ccc(-n2cc(COC(=O)c3ccc4c(c3)C(=O)N(c3ccc(Cl)cc3)C4=O)nn2)cc1`, in test [1], the Ki is 0.0489 µM. This compound also returned an IC50 in test [2] of 352 µM.

Consider `NS(=O)(=O)c1ccc(-n2cc(COC(=O)c3ccc4c(c3)C(=O)N(c3ccccc3Cl)C4=O)nn2)cc1`, for which the inhibition constant (Ki) in test [1] amounted to 0.0186 µM. For the same compound, in test [2], the IC50 was 290 µM. Consider `COc1cccc2c1C(=O)c1c(O)c3c(c(O)c1C2=O)C[C@@](O)(C(=O)CO)C[C@@H]3O[C@H]1C[C@H](N)[C@H](O)[C@H](C)O1` [DOXORUBICIN], for which the IC50 in test [2] was determined as 10.8 µM. Consider `CCCCCCCCN1C(=O)c2ccc(C(=O)OCc3cn(-c4ccc(S(N)(=O)=O)cc4)nn3)cc2C1=O`, for which the inhibition constant (Ki) in test [1] worked out at 0.05 µM. The IC50 in test [2] came to 235 µM. As for `CCCCN1C(=O)c2ccc(C(=O)OCc3cn(-c4ccc(S(N)(=O)=O)cc4)nn3)cc2C1=O`, the Ki in test [1] turned out to be 0.035 µM. The compound further returned an IC50 in test [2] of 199 µM. For the compound `Cc1cccc(C)c1N1C(=O)c2ccc(C(=O)OCc3cn(-c4ccc(S(N)(=O)=O)cc4)nn3)cc2C1=O`, the Ki in test [1] turned out to be 0.0245 µM. The compound also registered a 50% inhibitory concentration (IC50) in test [2] of 253 µM. `NS(=O)(=O)c1ccc(-n2cc(COC(=O)c3ccc4c(c3)C(=O)N(c3cccc5ccccc35)C4=O)nn2)cc1`: in test [1], the Ki worked out at 0.0253 µM. Further, the IC50 in test [2] was determined as 278 µM. For the compound `NS(=O)(=O)c1ccc(-n2cc(COC(=O)c3ccc4c(c3)C(=O)N(c3ccccc3)C4=O)nn2)cc1`, in test [1], the Ki turned out to be 0.0183 µM. For the same compound, the IC50 in test [2] worked out at 300 µM. For `NS(=O)(=O)c1ccc(-n2cc(COC(=O)c3ccc4c(c3)C(=O)N(Cc3ccc5c(c3)OCO5)C4=O)nn2)cc1`, in that order: 0.0239 µM and 130 µM. In the case of `NS(=O)(=O)c1ccc(-n2cc(COC(=O)c3ccc4c(c3)C(=O)N(c3ccccc3I)C4=O)nn2)cc1`, in test [1], the Ki worked out at 0.0353 µM. This compound returned a concentration for half-maximal inhibition (IC50) in test [2] of 258 µM.

Take `NS(=O)(=O)c1ccc(-n2cc(COC(=O)c3ccc4c(c3)C(=O)N(c3cccc(F)c3)C4=O)nn2)cc1`: the inhibition constant Ki in test [1] was found to be 0.0229 µM. This compound also returned a half-inhibitory concentration (IC50) in test [2] of 231 µM.
